Laboratory results as given in ChEMBL document CHEMBL5154654, “Design, synthesis and biological evaluation of 7-((7H-pyrrolo[2,3-d]pyrimidin-4-yl)oxy)-2,3-dihydro-1H-inden-1-one derivatives as potent FAK inhibitors for the treatment of ovarian cancer” (Eur J Med Chem, 2022).
Converted amounts (≈) assume the structure as drawn.

Tests used:
Focal adhesion kinase 1 = Focal adhesion kinase 1 (Homo sapiens, UniProt Q05397); test: Inhibition of FAK (unknown origin) using Fluorescein-Poly GAT as substrate incubated for 30 mins and measured after 60 mins by Lanthascreen assay
Sequence of Focal adhesion kinase 1 (Q05397 whole entry): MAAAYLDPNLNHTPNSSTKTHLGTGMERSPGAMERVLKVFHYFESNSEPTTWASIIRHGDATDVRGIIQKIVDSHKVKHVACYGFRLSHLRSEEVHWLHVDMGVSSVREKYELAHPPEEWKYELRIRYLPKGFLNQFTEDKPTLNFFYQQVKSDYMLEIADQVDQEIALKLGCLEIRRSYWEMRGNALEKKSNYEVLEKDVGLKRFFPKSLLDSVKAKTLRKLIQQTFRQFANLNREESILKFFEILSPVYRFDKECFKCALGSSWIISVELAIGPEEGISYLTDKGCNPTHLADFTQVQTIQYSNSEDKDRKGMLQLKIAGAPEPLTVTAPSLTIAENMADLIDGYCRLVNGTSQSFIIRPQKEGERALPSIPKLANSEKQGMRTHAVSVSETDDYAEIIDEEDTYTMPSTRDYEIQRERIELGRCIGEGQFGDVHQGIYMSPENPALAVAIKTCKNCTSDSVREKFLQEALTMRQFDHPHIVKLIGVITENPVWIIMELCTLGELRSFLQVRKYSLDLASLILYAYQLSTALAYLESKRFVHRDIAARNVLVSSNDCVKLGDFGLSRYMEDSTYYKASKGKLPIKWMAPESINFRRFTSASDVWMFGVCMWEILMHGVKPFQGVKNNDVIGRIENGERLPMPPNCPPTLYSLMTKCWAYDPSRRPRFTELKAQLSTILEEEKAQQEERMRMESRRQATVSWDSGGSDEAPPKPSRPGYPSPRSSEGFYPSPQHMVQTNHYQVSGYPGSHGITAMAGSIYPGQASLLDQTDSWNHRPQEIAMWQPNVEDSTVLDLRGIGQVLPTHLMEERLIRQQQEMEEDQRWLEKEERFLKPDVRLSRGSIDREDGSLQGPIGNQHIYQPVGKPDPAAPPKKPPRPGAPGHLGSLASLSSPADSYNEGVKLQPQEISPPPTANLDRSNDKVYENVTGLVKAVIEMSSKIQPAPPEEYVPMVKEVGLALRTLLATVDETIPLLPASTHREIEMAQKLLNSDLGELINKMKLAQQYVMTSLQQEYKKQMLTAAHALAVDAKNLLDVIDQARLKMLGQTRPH

[1] = Metabolic stability in human liver microsomes assessed as parent compound remaining incubated for 120 mins in presence of NADPH by LC-MS/MS analysis; assay type: ADME, Microsome; conditions: read-out: Stability
[2] = Metabolic stability in human liver microsomes assessed as half-life incubated for 120 mins in presence of NADPH by LC-MS/MS analysis; assay type: ADME, Microsome
[3] = Metabolic stability in human liver microsomes assessed as intrinsic clearance incubated for 120 mins in presence of NADPH by LC-MS/MS analysis; assay type: ADME, Microsome; conditions: read-out: CLH
[4] = Aqueous solubility of compound; assay type: physicochemical; conditions: aqueous (not further specified)
[5] = target: Receptor-type tyrosine-protein kinase FLT3 (Homo sapiens) (UniProt P36888); test: Inhibition of FLT3 (unknown origin) at 1 uM incubated for 40 mins in presence of Mg/ATP mix relative to control
Sequence of Receptor-type tyrosine-protein kinase FLT3 (Homo sapiens) (P36888 whole entry): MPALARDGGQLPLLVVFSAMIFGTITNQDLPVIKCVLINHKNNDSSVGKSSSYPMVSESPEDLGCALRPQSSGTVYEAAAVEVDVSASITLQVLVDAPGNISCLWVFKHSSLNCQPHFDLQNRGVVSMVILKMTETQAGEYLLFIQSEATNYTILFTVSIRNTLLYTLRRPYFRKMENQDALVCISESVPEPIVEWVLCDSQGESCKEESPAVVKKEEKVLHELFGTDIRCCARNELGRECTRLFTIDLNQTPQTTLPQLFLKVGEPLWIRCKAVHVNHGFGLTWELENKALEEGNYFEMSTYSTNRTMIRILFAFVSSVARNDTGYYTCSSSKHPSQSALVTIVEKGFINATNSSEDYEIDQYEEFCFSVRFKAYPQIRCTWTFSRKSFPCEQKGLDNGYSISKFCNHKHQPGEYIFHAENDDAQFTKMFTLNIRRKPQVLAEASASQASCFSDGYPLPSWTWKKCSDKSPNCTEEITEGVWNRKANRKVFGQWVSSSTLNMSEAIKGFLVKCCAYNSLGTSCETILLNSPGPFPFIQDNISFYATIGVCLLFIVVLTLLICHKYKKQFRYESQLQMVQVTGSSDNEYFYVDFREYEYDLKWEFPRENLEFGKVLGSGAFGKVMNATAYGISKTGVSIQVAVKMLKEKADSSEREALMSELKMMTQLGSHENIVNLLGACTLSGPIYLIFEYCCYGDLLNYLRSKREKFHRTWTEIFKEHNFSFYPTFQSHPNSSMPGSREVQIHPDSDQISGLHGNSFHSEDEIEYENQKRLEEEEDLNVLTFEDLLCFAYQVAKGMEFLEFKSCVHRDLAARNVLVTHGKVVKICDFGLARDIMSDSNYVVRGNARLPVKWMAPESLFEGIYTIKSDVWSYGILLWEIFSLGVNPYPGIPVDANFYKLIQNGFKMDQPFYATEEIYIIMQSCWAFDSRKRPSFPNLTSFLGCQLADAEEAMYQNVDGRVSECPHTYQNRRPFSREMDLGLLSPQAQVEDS

Homo sapiens = species on record: Homo sapiens; test: Inhibition of MEK (unknown origin) at 1 uM incubated for 40 mins in presence of Mg/ATP mix relative to control

Row | IC50 (Focal adhesion kinase 1) [nM] | SMILES | other results
1 | 7.13 | Cc1cc(N2CCN(C)CC2)ccc1Nc1nc(Oc2cccc3c2C(=O)CC3)c2cc[nH]c2n1 | 
2 | 2.04 | COc1cc(N2CCN(C)CC2)ccc1Nc1nc(Oc2ccc(C)c3c2C(=O)CC3)c2cc[nH]c2n1 | remaining at 2 h [1]: 42.2%; half-life [2]: 99 min; CLint scaled [3]: 8.8 mL/min/kg; solubility [4]: 7.9 µg/mL (≈ 15.8 µM)
3 | 1140 | COc1cc(N2CCOCC2)ccc1Nc1nc(Oc2cccc3c2C(=O)CC3)c2cc[nH]c2n1 | 
4 | 27.6 | COc1cc(N2CCC(N3CCN(C)CC3)CC2)ccc1Nc1nc(-n2cnc3ccccc32)c2cc[nH]c2n1 | 
5 | 654 | COc1cc(N2CCOCC2)ccc1Nc1nc(Oc2cccc3c2C(=O)CC3)c2ccccc2n1 | 
6 | 945 | COc1cc(N2CCC(N3CCN(C)CC3)CC2)ccc1Nc1nc(Oc2cccc3c2C(=O)CC3)c2ccsc2n1 | 
7 | 173 | COc1cc(N2CCC(N3CCN(C)CC3)CC2)ccc1Nc1nc(-c2cnn(C)c2)c2cc[nH]c2n1 | 
8 | 9.05 | COc1nc(N2CCN(C)CC2)ccc1Nc1nc(Oc2cccc3c2C(=O)CC3)c2cc[nH]c2n1 | 
9 | 27.4 | COc1cc(N2CCC(N3CCN(C)CC3)CC2)ccc1Nc1nc(Oc2cccc3c2C(=O)CC3)c2sccc2n1 | 
10 | 144 | COc1cc(N2CCC(N3CCN(C)CC3)CC2)ccc1Nc1nc(-n2ccc3ccccc32)c2cc[nH]c2n1 | 

More lines, now with the values behind:

Row | SMILES | IC50 (Focal adhesion kinase 1) [nM] | other results
11 | COc1cc(N2CCOCC2)ccc1Nc1nc(Oc2cccc3c2C(=O)CC3)c2[nH]ccc2n1 | > 1000 | 
12 | Cc1cc(Nc2nc(Oc3cccc4c3C(=O)CC4)c3cc[nH]c3n2)ccc1OCCN(C)C | 3.93 | remaining at 2 h [1]: 19.8%; half-life [2]: 52 min; CLint scaled [3]: 16.7 mL/min/kg; solubility [4]: 9.3 µg/mL (≈ 20.3 µM)
13 | O=C1CCc2cccc(Oc3nc(Nc4ccc(N5CCOCC5)cc4)nc4sccc34)c21 | > 1000 | 
14 | Cc1cc(Nc2nc(Oc3cccc4c3C(=O)CC4)c3cc[nH]c3n2)ccc1N1CCN(CC2CC2)CC1 | 4.2 | remaining at 2 h [1]: 15.3%; half-life [2]: < 30 min; CLint scaled [3]: > 29 mL/min/kg
15 | O=C1CCc2cccc(Oc3nc(Nc4ccc(N5CCOCC5)cc4)nc4ccccc34)c21 | > 1000 | 
16 | COc1cc(N2CCN(C)CC2)ccc1Nc1nc(-n2ccc3ccccc32)c2cc[nH]c2n1 | 166 | 
17 | CN1CCN(c2ccc(Nc3nc(Oc4cccc5c4C(=O)CC5)c4ccsc4n3)cc2)CC1 | > 1000 | 
18 | COc1cc(N2CCN(C)CC2)ccc1Nc1nc(Oc2cccc3c2C(=O)CC3)c2ccsc2n1 | > 1000 | 
19 | CN1CCN(c2ccc(Nc3nc(Oc4cccc5c4C(=O)CC5)c4[nH]ccc4n3)cc2)CC1 | > 1000 | 
20 | CN1CCN(c2ccc(Nc3nc(Oc4cccc5c4C(=O)CC5)c4cc[nH]c4n3)cc2)CC1 | 10.5 | 
21 | CNC(=O)c1ccc(Nc2ncc(C(F)(F)F)c(NCc3nccnc3N(C)S(C)(=O)=O)n2)cc1 |  | inhibition [5]: > 90%; inhibition (Homo sapiens): > 90%
22 | COc1cc(N2CCN(C)CC2)ccc1Nc1nc(-c2cnn(C)c2)c2cc[nH]c2n1 | 330 | 
23 | O=C1CCc2cccc(Oc3nc(Nc4ccc(N5CCOCC5)cc4)nc4[nH]ccc34)c21 | 12.2 | 
24 | CN1CCN(c2ccc(Nc3nc(Oc4cccc5c4C(=O)CC5)c4ccccc4n3)cc2)CC1 | > 1000 | 
